Laboratory results published in US12539311B2, “Short-acting heparin-based anticoagulant compounds and methods” (The University of North Carolina at Chapel Hill, priority 2017, dated 2026).
Read-outs that look alike come from different tables or passages of the source.

What was measured:
FXa = assay: Determination of anti-FXa effect in vivo; parameters: species or system Lewis rats; details: rat, intravenous; for persistence of anti-FXa effect in vivo: blood drawn 0.5-8 hours
Experimental: (§1) All studies were performed under an Institutional Animal Care and Use Committee (IACUC)-approved protocol at the University of North Carolina, following Public Health Service guidelines for laboratory animal care and use. Sixteen 400-g Lewis rats were equally divided into four groups. […] Blood was then drawn at specified time points (0.5, 1, 2, 4, 8 hours) after the compounds had been administered, with one sample taken just before administration. 0.8 mL of blood was drawn from the contralateral femoral/saphenous vein into 150 mM citrate at 0.5, 1, 2, 4 and 8 hours following injection of the compounds, with one sample drawn immediately prior to injection. The samples were centrifuged to obtain approximately 400 μL of plasma. The blood samples were subjected to FXa activity analysis. Saline was given periodically subcutaneously to maintain fluid volume.

antithrombin (AT) [1] = biological target: T1, antithrombin (AT) (Homo sapiens, UniProt P01008); details: affinity coelectrophoresis, reported in a previous publication; read-out: Binding affinity (Kd) to AT; cited from earlier work
T1 sequence (P01008 33-464): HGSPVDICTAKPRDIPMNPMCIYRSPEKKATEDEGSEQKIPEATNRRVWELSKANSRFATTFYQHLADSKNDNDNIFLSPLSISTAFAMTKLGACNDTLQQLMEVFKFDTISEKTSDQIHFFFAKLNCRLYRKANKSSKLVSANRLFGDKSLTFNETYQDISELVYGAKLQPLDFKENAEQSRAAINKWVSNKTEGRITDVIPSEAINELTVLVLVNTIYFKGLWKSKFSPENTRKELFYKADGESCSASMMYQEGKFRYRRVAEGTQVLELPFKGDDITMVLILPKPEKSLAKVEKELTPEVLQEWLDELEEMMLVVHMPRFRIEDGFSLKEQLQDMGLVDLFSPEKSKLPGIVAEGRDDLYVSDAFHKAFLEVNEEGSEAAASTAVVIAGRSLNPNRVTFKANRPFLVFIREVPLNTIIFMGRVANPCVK

antithrombin (AT) [2] = biological target: T1, antithrombin (AT); assay: AT-binding affinity analysis using isothermal titration calorimetry (ITC)
[3] = Clearance of oligosaccharides from the drug-treated animals (plasma concentration against time); type: in vivo, Lewis rats
Experimental: as §1
Using a calibration curve generated for each compound, the concentration of compound in the reaction mixture was read off for each corresponding FXa activity percentage. The average plasma concentration and standard deviation between the 4 rats in each group were calculated for each time point; these values were used to plot a graph of plasma concentration against time.

platelet factor 4 = biological target: T2, platelet factor 4 (Homo sapiens, UniProt P02776); assay: Risk of heparin-induced thrombocytopenia (HIT) / binding to platelet factor 4; details: expected from size (smaller than 12-mers do not bind platelet factor 4)
T2 sequence (P02776 32-101): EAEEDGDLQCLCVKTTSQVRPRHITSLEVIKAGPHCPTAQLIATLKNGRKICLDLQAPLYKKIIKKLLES

antithrombin (AT) [4] = biological target: T1, antithrombin (AT); details: reported in a previous publication, method not given, cited from earlier work

## CC(=O)NC1C(OC2C(C(=O)O)OC(OC3C(COS(=O)(=O)O)OC(OC4C(C(=O)O)OC(OC5C(COS(=O)(=O)O)OC(OC6C(C(=O)O)OC(OC7C(COS(=O)(=O)O)OC(OC8C(C(=O)O)OC(Oc9ccc([N+](=O)[O-])cc9)C(O)C8O)C(NS(=O)(=O)O)C7O)C(OS(=O)(=O)O)C6O)C(NS(=O)(=O)O)C5O)C(OS(=O)(=O)O)C4O)C(NS(=O)(=O)O)C3OS(=O)(=O)O)C(O)C2O)OC(COS(=O)(=O)O)C(O)C1O (centres unmarked) [Comp 11, reference compound]
FXa
  persistence of anti-FXa effect in vivo: persisted after 8 hours
Antithrombin (AT) [1]
  Kd: 8 ± 3 nM

## O=C(O)C1OC(OC2C(COS(=O)(=O)O)OC(OC3C(C(=O)O)OC(OC4C(COS(=O)(=O)O)OC(OC5C(C(=O)O)OC(OC6C(COS(=O)(=O)O)OC(OC7C(C(=O)O)OC(Oc8ccc([N+](=O)[O-])cc8)C(O)C7O)C(NS(=O)(=O)O)C6O)C(OS(=O)(=O)O)C5O)C(NS(=O)(=O)O)C4OS(=O)(=O)O)C(OS(=O)(=O)O)C3O)C(NS(=O)(=O)O)C2O)C(O)C(O)C1OC1OC(COS(=O)(=O)O)C(O)C(O)C1NS(=O)(=O)O (centres unmarked) [Comp 5]
Antithrombin (AT) [2]; ITC
  Kd: 5.1 ± 1.4 nM
Antithrombin (AT) [2]; listed as Compound 5
  binding to AT (in words): binds to AT
Antithrombin (AT) [2]; listed as compound 5
  binding to AT (in words): binds to AT tightly
FXa
  persistence of anti-FXa effect in vivo: diminished after 4 hours
FXa; within 30 min after administration
  anti-FXa potency in vivo: comparable anti-FXa potency to that of fondaparinux and compound 11
[3]; in a rat or mouse model
  clearance rate faster than that of fondaparinux: at least 50%
[3]; rat, compared with fondaparinux and compound 11
  clearance in vivo (in words): cleared faster from the animal in the first 2 hours
Platelet factor 4
  risk of HIT: very low risk of HIT

## O=C(O)C1OC(OC2C(COS(=O)(=O)O)OC(OC3C(C(=O)O)OC(OC4C(COS(=O)(=O)O)OC(OC5C(C(=O)O)OC(Oc6ccc([N+](=O)[O-])cc6)C(O)C5O)C(NS(=O)(=O)O)C4O)C(O)C3O)C(NS(=O)(=O)O)C2OS(=O)(=O)O)C(O)C(O)C1OC1OC(COS(=O)(=O)O)C(O)C(O)C1NS(=O)(=O)O (centres unmarked) [IdoA-containing 6-mer]
Antithrombin (AT) [4]; read-out: Binding affinity (Kd) to AT
  Kd: 32.6 ± 5.3 nM

## O=C(O)C1OC(OC2C(COS(=O)(=O)O)OC(OC3C(C(=O)O)OC(OC4C(COS(=O)(=O)O)OC(OC5C(C(=O)O)OC(Oc6ccc([N+](=O)[O-])cc6)C(O)C5O)C(NS(=O)(=O)O)C4OS(=O)(=O)O)C(OS(=O)(=O)O)C3O)C(NS(=O)(=O)O)C2O)C(O)C(O)C1OC1OC(COS(=O)(=O)O)C(O)C(O)C1NS(=O)(=O)O (centres unmarked) [Comp 2, GlcNS6S-GlcA-GlcNS6S-IdoA2S-GlcNS3S6S-GlcA-pNP]
Antithrombin (AT) [2]; ITC
  Binding affinity (Kd) to AT: No binding

## O=C(O)C1OC(OC2C(CO)OC(OC3C(C(=O)O)OC(OC4C(CO)OC(OC5C(C(=O)O)OC(OC6C(CO)OC(OC7C(C(=O)O)OC(Oc8ccc([N+](=O)[O-])cc8)C(O)C7O)C(NS(=O)(=O)O)C6O)C(OS(=O)(=O)O)C5O)C(NS(=O)(=O)O)C4OS(=O)(=O)O)C(OS(=O)(=O)O)C3O)C(NS(=O)(=O)O)C2O)C(O)C(O)C1OC1OC(CO)C(O)C(O)C1NS(=O)(=O)O (centres unmarked) [Comp 4]
Antithrombin (AT) [2]; ITC
  Binding affinity (Kd) to AT: No binding^c

## O=C(O)C1OC(OC2C(COS(=O)(=O)O)OC(OC3C(C(=O)O)OC(OC4C(COS(=O)(=O)O)OC(OC5C(C(=O)O)OC(Oc6ccc([N+](=O)[O-])cc6)C(O)C5O)C(NS(=O)(=O)O)C4O)C(OS(=O)(=O)O)C3O)C(NS(=O)(=O)O)C2OS(=O)(=O)O)C(O)C(O)C1OC1OC(COS(=O)(=O)O)C(O)C(O)C1NS(=O)(=O)O (centres unmarked) [GlcA2S-containing 6-mer, GlcNS6S-GlcA-GlcNS3S6S-GlcA2S-GlcNS6S-GlcA-pNP]
Antithrombin (AT) [4]
  Binding affinity (Kd) to AT: No binding^d
